The values below come from PMC7189608, “FaPAO5 regulates Spm/Spd levels as a signaling during strawberry fruit ripening” (Plant Direct, 2020).

The target in the test is T1, FaPAO5.
T1 construct: 105 kDa fusion protein
The experiment in a line: isothermal titration calorimetry. In kind it is binding, Fragaria x ananassa. Conditions: pH 7.4, 30 °C, 200 mM NaCl, 20 mM Tris, 0.5 mM EDTA, 10 mM maltose; MBP fusion protein (10 µM in Methods, 20 µM in Results); ligand 100 µM. An excerpt: isothermal titration calorimetry on FaPAO5 | the binding of FaPAO5 to Spm and Spd followed a saturation kinetics curve
In general terms: In ITC the heat of successive injections is recorded.

Take `NCCCCNCCCN` [Spd]: the Kd (in general, the equilibrium constant for the complex coming apart) was determined as 290 nM. Consider `NCCCNCCCCNCCCN` [Spm], for which binding was put at a Kd of 210 nM.
